Assay [1] relates to MLL leukemia cells. Kind of assay: Cell cycle arrest in MLL leukemia cells. Conditions: different MLL leukemia cells; FIG. 9. The class given is cell-based.
Assay [2] relates to MLL-AF9 transformed murine bone marrow cells. Kind of assay: Colony forming assay in MLL-AF9 transformed murine bone marrow cells. Type of assay: cell-based. The following applies: FIG. 10.
Assay [3] has as its system MV4;11. Kind of assay: Apoptosis in human MLL leukemia cell line MV4;11. Type of assay: cell-based. The following applies: FIG. 8A.
Assay [4] has as its system ML-2. Kind of assay: Apoptosis in human MLL leukemia cell line ML-2. The following applies: FIG. 8A. Type of assay: cell-based.
In assay [5] the test system is MLL-AF9 transformed murine bone marrow cells. Kind of assay: Proliferation of MLL-AF9 transformed murine bone marrow cells. Type of assay: cell-based. The following applies: FIG. 2.
Assay [6] deals with Kasumi-1. Kind of assay: Apoptosis in control cell line Kasumi-1 without MLL translocation. The class given is cell-based. Conditions: Kasumi-1 control cell line without MLL translocation; FIG. 8B.
The test system of assay [7] is MLL-ENL transformed murine bone marrow cells. Kind of assay: Proliferation of MLL-ENL transformed murine bone marrow cells. The class given is cell-based. The following applies: FIG. 2.
For assay [8], the system named is KOPN8. Kind of assay: Differentiation of human MLL leukemia cell line KOPN8. The class given is cell-based. The following applies: FIG. 7.
The test system of assay [9] is MV4;11. Kind of assay: Differentiation of human MLL leukemia cell line MV4;11. Type of assay: cell-based. The following applies: FIG. 6, FIG. 7.
The subject of assay [10] is MI-2. Kind of assay: Differentiation of human MLL leukemia cell line MI-2. Type of assay: cell-based. The following applies: FIG. 7.
In assay [11] the test system is MonoMac-6. Kind of assay: Differentiation of human MLL leukemia cell line MonoMac-6. The class given is cell-based. The following applies: FIG. 7.
The subject of assay [12] is MLL-AF9 transformed murine bone marrow cells. Kind of assay: Differentiation of MLL-AF9 transformed murine bone marrow cells. Type of assay: cell-based. Conditions: for differentiation as assessed by increased expression of the CD11b differentiation marker: FIG. 4; for differentiation as assessed by significant change in morphology: FIG. 5.
Assay [13] deals with Hoxa9 and Meis1. Kind of assay: Expression level of Hoxa9 and Meis1 in MLL-AF9 transformed bone marrow cells. The class given is cell-based, murine. Conditions: FIG. 1B.

Regarding `N#Cc1ccc(OCCCN2CCC(C(O)c3ccccc3)CC2)cc1` (stereo not shown) [B76 (NC)], the cell cycle arrest entry in assay [1] is “No such effect”. In addition, the “transforming properties of MLL-AF9 fusion protein (colony number, morphology of colonies)” value in assay [2] was “but not NC reduce transforming properties”. The values for the apoptosis entry in assay [3], in [4] and in assay [6] were “but not the control compound (NC) induce apoptosis”, “but not the control compound (NC) induce apoptosis” and “No effect on apoptosis”, respectively. Also, the inhibition of proliferation result in assay [5] and in assay [7] was “No such effect” in each case.

Turning to `N#Cc1ccc(OCCCN2CCC([C@](O)(c3ccccc3)C3CCCC3)CC2)cc1` [Compound B19], the “differentiation (change in the CD11b expression and change in morphology of cells)” value in assay [8], in assay [10] and in assay [11] was “induce differentiation” throughout. In assay [9], the “differentiation (CD11b expression and morphology change)” value was “induce differentiation”. In assay [1], the cell cycle arrest entry is on record as “induce cell cycle arrest”. Further, the “transforming properties of MLL-AF9 fusion protein (colony number, morphology of colonies)” value in assay [2] is reported as “reduce transforming properties”. Besides, the apoptosis entry in assay [3] is given as “induce apoptosis”; in [4], “induce apoptosis”; in [6], “No effect on apoptosis”. Besides, the “differentiation as assessed by increased expression of the CD11b differentiation marker” value in assay [12] was “induces differentiation”. Moreover, in assay [12], the “differentiation as assessed by significant change in morphology” value is given as “induces differentiation”. The “expression level of Hoxa9 and Meis1” value in assay [13] was “strongly downregulates”.

For `N#Cc1ccc(OCCCN2CCC([C@@](O)(c3ccccc3)C3CCCC3)CC2)cc1` [Compound B20], the “differentiation (change in the CD11b expression and change in morphology of cells)” value in assay [8], in [10] and in assay [11] was “induce differentiation” throughout. Further, the “differentiation (CD11b expression and morphology change)” value in assay [9] is listed as “induce differentiation”. The cell cycle arrest result in assay [1] is reported as “induce cell cycle arrest”. For the same compound, the “transforming properties of MLL-AF9 fusion protein (colony number, morphology of colonies)” value in assay [2] was “reduce transforming properties”. Besides, the results for the apoptosis result in assay [3], in assay [4] and in assay [6] were “induce apoptosis”, “induce apoptosis” and “No effect on apoptosis”, respectively. In addition, the “differentiation as assessed by increased expression of the CD11b differentiation marker” value in [12] is on record as “induces differentiation”. Further, the “differentiation as assessed by significant change in morphology” value in assay [12] is recorded as “induces differentiation”. Further, the “expression level of Hoxa9 and Meis1” value in [13] was “strongly downregulates”.

(Values after patent US9212180B2 (priority 2013, dated 2015).)
